Assay results from ChEMBL document CHEMBL1201862, “PubChem BioAssay data set” (2004).
Activity calls are given as the source filed them.

Experiments:
Phospholipase D2 = Phospholipase D2 (Homo sapiens, UniProt O14939); assay: PLD2 Cellular Concentration Response Study.; format: functional
Phospholipase D1 = target: T1, Phospholipase D1 (Homo sapiens, UniProt Q13393); assay: PLD1 Cellular Concentration Response Study.; format: functional
T1 sequence (Q13393 whole entry): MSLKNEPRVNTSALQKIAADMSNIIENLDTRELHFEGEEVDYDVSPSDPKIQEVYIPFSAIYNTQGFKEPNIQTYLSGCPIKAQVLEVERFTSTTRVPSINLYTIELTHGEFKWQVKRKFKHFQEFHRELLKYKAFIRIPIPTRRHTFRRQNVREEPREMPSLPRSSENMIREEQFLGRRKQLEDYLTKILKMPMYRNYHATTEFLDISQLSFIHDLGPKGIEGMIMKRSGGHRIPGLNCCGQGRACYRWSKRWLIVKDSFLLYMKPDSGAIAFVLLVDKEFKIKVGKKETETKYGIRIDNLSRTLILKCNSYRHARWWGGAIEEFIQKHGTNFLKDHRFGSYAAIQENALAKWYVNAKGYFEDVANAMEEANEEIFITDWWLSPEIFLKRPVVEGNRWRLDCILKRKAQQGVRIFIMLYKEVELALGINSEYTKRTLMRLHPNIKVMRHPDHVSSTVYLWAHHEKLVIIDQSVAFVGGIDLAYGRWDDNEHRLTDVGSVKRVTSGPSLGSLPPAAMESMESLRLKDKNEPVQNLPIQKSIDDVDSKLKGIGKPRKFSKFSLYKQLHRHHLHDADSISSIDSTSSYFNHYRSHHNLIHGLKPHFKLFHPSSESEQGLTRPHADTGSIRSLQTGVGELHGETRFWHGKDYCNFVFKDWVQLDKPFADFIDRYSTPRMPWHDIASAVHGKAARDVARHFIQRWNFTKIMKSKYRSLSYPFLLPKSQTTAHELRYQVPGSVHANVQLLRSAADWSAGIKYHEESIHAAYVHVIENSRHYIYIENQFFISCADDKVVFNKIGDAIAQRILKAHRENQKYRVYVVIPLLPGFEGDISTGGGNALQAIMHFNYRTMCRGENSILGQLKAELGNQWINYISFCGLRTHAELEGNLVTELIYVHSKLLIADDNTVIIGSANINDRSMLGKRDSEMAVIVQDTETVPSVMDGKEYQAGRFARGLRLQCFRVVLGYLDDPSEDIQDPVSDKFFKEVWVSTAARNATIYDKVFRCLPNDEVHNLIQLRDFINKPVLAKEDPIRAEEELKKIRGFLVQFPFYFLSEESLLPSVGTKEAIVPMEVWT

[1] = non-specific cell cytotoxicity, dose response, cytotoxicity control for PAX8 inhibitor project, plate reader, dry powder samples (AID 743021); format: functional, cell-based
[2] = A2780 ovarian cancer cell cytotoxicity, dose response, cytotoxicity control, plate reader, dry powder samples (AID 743046); format: functional, cell-based
[3] = HepG2 cell cytotoxicity, dose response, cytotoxicity control, plate reader, dry powder samples (AID 1159569); format: functional, cell-based;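 note: inhibitor potency with signal falling toward the positive control level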
[4] = cytotoxicity in OVCAR8 ovarian cancer cells, dose response, PAX8 project, cell-based, plate reader, dry powder samples (AID 743197); format: functional; conditions: OVCAR-8
[5] = P. falciparum Dd2 growth inhibitors, dose response, SYBR Green, dry powder samples (AID 1159566); format: functional, cell-based;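 note: potency for growth inhibition with lower SYBR green DNA signal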
[6] = IGROV1 ovarian cancer cell cytotoxicity, dose response, PAX8 inhibitor project, plate reader, dry powder samples (AID 743043); format: functional, cell-based; conditions: IGROV-1
[7] = P. falciparum ATP4 D1247Y mutant growth inhibitors, dose response, NITD609-resistant line, SYBR Green, dry powder (AID 1159571); format: functional, cell-based;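 note: parasites synchronized at ring stage by sorbitol before testing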
[8] = P. falciparum 3D7-ScDHODH growth inhibitors, dose response, SYBR Green, dry powder samples (AID 1159570); format: functional, cell-based;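 note: parasite growth measured after 72 hours of compound exposure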
[9] = IOSE-T80 ovarian epithelial cell cytotoxicity, dose response, cytotoxicity control for PAX8 inhibitor project, plate reader, dry powder samples (AID 743045); format: functional, cell-based
Paired box protein Pax-8 = Paired box protein Pax-8 (Homo sapiens, UniProt Q06710); assay: inhibitors of PAX8-driven TPO luciferase reporter, dose response, RMG-I cells, cherry-pick (AID 687027); format: functional, cell-based;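 note: luciferase reporter driven by Pax8 target thyroperoxidase promoter measured by SteadyGlo luminescence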
[10] = P. falciparum Dd2 growth inhibitors, dose response, SYBR Green, cherry-picked samples (AID 1159567); format: functional, cell-based
[11] = NIH:OVCAR-3 ovarian cancer cell cytotoxicity, dose response, PAX8 inhibitor project, plate reader, dry powder samples (AID 743044); format: functional, cell-based
[12] = Luminescence-based cell-based high throughput dose response assay to identify activators of the DAF-12 from the parasite S. stercoralis (ssDAF-12).; format: functional
[13] = target: Oxysterols receptor LXR-beta (Homo sapiens, UniProt P55055); assay: LXR agonists, Gal4 luciferase reporter, dose response, counter-screen for ssDAF-12 agonist project, cell-based, luminescence, HEK293, S. stercoralis campaign (AID 720737); format: functional; conditions: read-out: IC50 (the source's name)
[14] = CellTiter-Glo luminescent dose response of DLD-1 viability loss (AID 1117352); format: functional
[15] = SNU-C1 cell viability reduction, dose response, CellTiter-Glo luminescence (AID 1117323); format: functional, cell-based
[16] = HeLa 2N DNA content increase, dose response, cell-based, IC50 (AID 1117349); format: functional
[17] = HCT116 cell viability decrease, GSK3B pretreatment – CellTiter-Glo, IC50, dose response (AID 1117339); format: functional; conditions: HCT-116
[18] = HeLa 4N DNA content increase, dose response, cell-based, IC50 (AID 1117351); format: functional
[19] = RKO cell viability reduction, dose response, CellTiter-Glo luminescence (AID 1117322); format: functional
[20] = cytotoxicity toward HCT116 cells – cell-based, CellTiter-Glo luminescence, IC50, dose response (AID 1117332); format: functional; conditions: HCT-116
[21] = Concentration-dependent survival of SW480 colon cancer line, luminescence detection with CellTiter-Glo, half-maximal inhibitory concentration (AID 1117338); format: functional
[22] = cytotoxicity toward Colo320 cells – cell-based, CellTiter-Glo luminescence, IC50, dose response (AID 1117334); format: functional; conditions: COLO 320
cells = conditions: HEK293
Bcl-2-related protein A1 [23] = target: T2, Bcl-2-related protein A1 (Mus musculus, UniProt Q07440); assay: Bfl-1 inhibitors, primary screen, biochemical, fluorescence polarization, FITC-Bid, mouse (AID 432)
T2 sequence (Q07440 whole entry): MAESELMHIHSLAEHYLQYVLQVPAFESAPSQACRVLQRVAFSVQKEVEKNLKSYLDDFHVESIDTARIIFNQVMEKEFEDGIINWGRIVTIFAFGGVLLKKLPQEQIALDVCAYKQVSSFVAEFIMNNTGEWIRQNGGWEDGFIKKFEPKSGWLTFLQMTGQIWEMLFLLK

Bcl-2-related protein A1 [24] = target: T2, Bcl-2-related protein A1; assay: Bfl-1 inhibitors blocking BH3 peptide binding, confirmation, biochemical, TR-FRET, mouse Bfl-1 (AID 621);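 note: TR-FRET binding of GST-Bfl-1 to FITC-labelled Bid peptide via terbium antibody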
Hexokinase HKDC1 = target: T3, Hexokinase HKDC1 (Homo sapiens, UniProt Q2TB90); assay: HKDC1 hexokinase inhibitors, dose response, biochemical, W721R variant (AID 504729); format: functional
T3 sequence (Q2TB90 whole entry): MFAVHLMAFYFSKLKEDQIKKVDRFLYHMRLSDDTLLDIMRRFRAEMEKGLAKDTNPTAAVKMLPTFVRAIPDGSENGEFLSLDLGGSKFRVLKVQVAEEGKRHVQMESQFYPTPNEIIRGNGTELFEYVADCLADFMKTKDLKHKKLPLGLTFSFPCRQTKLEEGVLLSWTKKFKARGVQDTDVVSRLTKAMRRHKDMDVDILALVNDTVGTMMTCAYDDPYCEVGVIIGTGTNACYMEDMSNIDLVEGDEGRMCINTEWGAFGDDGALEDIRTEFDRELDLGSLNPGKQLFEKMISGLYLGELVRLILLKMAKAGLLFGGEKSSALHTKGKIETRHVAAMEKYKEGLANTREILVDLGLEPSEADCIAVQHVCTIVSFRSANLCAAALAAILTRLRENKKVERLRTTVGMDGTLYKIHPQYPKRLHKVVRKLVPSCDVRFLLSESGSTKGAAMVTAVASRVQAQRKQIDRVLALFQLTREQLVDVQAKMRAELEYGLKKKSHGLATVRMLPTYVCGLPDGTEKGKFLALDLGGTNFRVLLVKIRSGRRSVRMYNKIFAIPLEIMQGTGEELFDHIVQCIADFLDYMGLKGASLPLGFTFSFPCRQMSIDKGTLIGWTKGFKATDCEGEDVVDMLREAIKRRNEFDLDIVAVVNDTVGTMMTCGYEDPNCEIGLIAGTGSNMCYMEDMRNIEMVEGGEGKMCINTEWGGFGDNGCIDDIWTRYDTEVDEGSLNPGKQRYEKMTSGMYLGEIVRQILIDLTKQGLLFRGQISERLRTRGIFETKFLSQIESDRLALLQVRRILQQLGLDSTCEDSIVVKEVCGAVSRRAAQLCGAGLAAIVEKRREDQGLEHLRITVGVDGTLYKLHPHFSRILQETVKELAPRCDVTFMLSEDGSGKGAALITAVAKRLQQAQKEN

ELAV-like protein 1 = ELAV-like protein 1 (Homo sapiens, UniProt Q15717); assay: Identify HuR specific inhibitors.; format: functional
Sequence of ELAV-like protein 1 (Q15717 whole entry): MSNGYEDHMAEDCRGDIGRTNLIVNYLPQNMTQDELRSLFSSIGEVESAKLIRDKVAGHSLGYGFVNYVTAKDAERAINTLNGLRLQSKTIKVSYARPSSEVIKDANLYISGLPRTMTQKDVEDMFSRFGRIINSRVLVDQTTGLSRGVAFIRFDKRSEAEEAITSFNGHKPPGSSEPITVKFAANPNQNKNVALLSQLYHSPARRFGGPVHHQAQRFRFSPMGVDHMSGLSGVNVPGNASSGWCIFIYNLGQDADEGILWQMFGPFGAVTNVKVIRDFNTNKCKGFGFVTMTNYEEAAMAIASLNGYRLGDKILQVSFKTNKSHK

Sequence of Oxysterols receptor LXR-beta (P55055 whole entry, the tested form may be a part): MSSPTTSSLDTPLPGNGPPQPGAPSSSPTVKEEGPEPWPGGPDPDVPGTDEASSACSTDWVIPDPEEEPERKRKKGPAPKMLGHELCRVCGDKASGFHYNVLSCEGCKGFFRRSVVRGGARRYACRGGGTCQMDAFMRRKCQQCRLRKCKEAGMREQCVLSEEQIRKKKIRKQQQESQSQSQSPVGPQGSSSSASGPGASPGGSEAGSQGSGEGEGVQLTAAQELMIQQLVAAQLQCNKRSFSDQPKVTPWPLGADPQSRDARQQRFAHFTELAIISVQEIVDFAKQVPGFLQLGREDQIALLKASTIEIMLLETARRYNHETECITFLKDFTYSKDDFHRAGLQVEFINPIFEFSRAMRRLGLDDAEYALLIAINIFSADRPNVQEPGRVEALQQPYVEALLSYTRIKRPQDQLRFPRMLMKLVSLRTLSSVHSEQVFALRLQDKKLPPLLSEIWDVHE
Sequence of Phospholipase D2 (O14939 whole entry): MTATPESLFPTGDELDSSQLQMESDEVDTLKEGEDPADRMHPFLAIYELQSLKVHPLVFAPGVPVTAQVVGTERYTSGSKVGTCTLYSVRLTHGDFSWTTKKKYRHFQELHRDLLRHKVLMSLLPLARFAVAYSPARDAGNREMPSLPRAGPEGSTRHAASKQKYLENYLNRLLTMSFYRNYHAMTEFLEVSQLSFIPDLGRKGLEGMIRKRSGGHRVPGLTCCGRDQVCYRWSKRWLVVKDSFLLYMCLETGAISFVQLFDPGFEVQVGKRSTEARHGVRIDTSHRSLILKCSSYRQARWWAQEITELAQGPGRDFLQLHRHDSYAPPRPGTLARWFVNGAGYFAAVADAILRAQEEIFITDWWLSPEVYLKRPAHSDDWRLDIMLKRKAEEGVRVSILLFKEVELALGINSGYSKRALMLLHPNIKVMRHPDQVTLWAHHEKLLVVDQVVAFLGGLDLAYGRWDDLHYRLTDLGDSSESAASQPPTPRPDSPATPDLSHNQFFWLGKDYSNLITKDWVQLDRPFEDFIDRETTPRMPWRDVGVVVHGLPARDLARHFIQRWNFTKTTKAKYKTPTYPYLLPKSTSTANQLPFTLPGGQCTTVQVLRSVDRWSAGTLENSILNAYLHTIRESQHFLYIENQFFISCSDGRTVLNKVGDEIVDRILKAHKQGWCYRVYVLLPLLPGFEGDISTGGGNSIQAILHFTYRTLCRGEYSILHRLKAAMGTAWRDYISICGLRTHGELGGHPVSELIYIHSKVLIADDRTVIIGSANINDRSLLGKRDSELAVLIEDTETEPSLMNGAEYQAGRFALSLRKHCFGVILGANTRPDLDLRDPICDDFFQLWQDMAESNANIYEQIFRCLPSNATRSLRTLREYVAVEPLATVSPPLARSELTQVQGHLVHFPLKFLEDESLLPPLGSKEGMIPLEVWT
Sequence of Paired box protein Pax-8 (Q06710 whole entry): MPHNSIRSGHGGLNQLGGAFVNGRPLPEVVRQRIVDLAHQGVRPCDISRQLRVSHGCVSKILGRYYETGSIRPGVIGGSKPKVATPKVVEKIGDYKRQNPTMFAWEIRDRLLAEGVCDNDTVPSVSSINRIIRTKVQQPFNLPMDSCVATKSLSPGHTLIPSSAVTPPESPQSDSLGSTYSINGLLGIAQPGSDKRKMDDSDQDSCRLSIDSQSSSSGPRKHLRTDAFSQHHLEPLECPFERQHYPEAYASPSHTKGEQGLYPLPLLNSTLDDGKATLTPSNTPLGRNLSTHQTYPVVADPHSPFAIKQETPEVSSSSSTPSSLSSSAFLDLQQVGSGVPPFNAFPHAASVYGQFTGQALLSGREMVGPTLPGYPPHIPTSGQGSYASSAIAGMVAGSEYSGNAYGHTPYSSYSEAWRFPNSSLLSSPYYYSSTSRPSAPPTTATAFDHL

O=C(NCCN1CCC2(CC1)C(=O)NCN2C(=O)C1CC1)c1ccc2ccccc2c1
IC50 (Phospholipase D2): 440 nM (active) | IC50 (Phospholipase D1): 3.1 µM (active)

C[C@H]1CN([C@@H](C)CO)C(=O)c2c(c3ccccc3n2C)-c2ccccc2CO[C@H]1CN(C)S(=O)(=O)c1ccc([N+](=O)[O-])cc1
AC50 [1]: 48.5 µM (active) | AC50 [2]: 12.7 µM (active) | AC50 [3]: 66.4 µM (active) | AC50 [4]: 10.2 µM (active) | AC50 [5]: 234 nM (active) | AC50 [6]: 12.2 µM (active) | AC50 [7]: 237 nM (active) | AC50 [8]: 298 nM (active) | AC50 [9]: 22.3 µM (active) | AC50 (Paired box protein Pax-8): 2.72 µM (active) | AC50 [10]: 629 nM (active) | AC50 [11]: 10.1 µM (active)

CCc1ccc(-c2csc3ncn(CC)c(=O)c23)cc1
IC50 [12]: > 67.6 µM (inactive) | EC50 [13]: > 67.6 µM (inactive)

O=C1C(I)=CC(=C(c2cc(I)c(O)c(I)c2)c2ccccc2C(=O)O)C=C1I [IODOPHTHALEIN SODIUM]
IC50 [14]: 13.2 nM (active) | IC50 [15]: 3.76 µM (active) | IC50 [16]: > 10 µM (inactive) | IC50 [17]: 54 nM (active) | IC50 [18]: > 10 µM (inactive) | IC50 [19]: 37.3 nM (active) | IC50 [20]: 384 nM (active) | IC50 [21]: 112 nM (active) | IC50 [22]: 312 nM (active)

COc1ccccc1OCCn1c(SC)nc2ccccc21
AC50 (cells): 29.1 µM (active)

COc1ccc(-c2nnc3sc(-c4c(OC)cccc4OC)nn23)cc1
IC50 (Bcl-2-related protein A1 [23]): 18.1 µM (active) | IC50 (Bcl-2-related protein A1 [24]): > 100 µM (not active)

COCC(=O)OC1CCn2c1nc1c2C(=O)C(C)=C(NC(C)=O)C1=O (stereo not given)
IC50 (Hexokinase HKDC1): 2.18 µM (active) | IC50 (ELAV-like protein 1): 17.4 µM (inactive)
